Source: patent US20210289787A1, “HERBICIDAL MIXTURES COMPRISING ISOXAFLUTOLE, TRIFLUDIMOXAZIN AND AN IMIDAZOLINONE HERBICIDE; AND THEIR USE IN SOYBEAN AND COTTON CULTURES” (BASF SE, priority 2018, published 2021)

System: SETVI (Setaria viridis, Green foxtail)
Assay: post-emergence greenhouse experiment, herbicidal action (synergism by Colby)
Format: in vivo

CS(=O)(=O)c1cc(C(F)(F)F)ccc1C(=O)c1cnoc1C1CC1 [Isoxaflutole, isoxaflutole]
Herbicidal action against SETVI, Found (growth stage 13 (6 to 10 cm), scale 0 to 100, test period 20 days, isoxaflutole 25 g/ha alone): 20
Herbicidal action against SETVI, Found (growth stage 13, scale 0 to 100, 20 days, isoxaflutole 12.5 g/ha alone): 20
